21 compounds from PubChem BioAssay (NCI) can be followed below.

Each structure is given as a SMILES string. Several values for one entry are separate records, joined by “and”; a condition that tells them apart may be missing. Identical values can stand only once.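 Assay format: 96-well plates, 48-hour exposure. GI50: concentration for 50% inhibition of growth. TGI denotes the concentration required for complete inhibition of growth.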 Where a SMILES comes first, the peptide text is derived from it. The star is where a group is joined. Cbz = O=C(OCc1ccccc1)*; Bn = c1ccc(C*)cc1 Some results are limits rather than exact numbers.

Some test systems named below: OVCAR-4 ovarian; MCF7 breast; HCT-15 colon; CAKI-1 renal; HCC-2998 colon; SK-MEL-28 melanoma; NCI-H522 lung; HCT-116 colon; A549 NSCLC; SNB-75 CNS; SR leukemia.
Test in all cases: NCI tumour cell line growth inhibition, 48 h

For the compound `COC(=O)C(Cc1ccc(O)cc1)NC(=O)C(COCc1ccccc1)NC(=O)OCc1ccccc1` (stereo not drawn) (Cbz-Ser(Bn)-Tyr-OMe; configuration not given here), the TGI with OVCAR-4 ovarian came to 34 µM; with MCF7 breast, 36.6 µM; in the experiment with HCT-15 colon, 33.6 µM; in the experiment on CAKI-1 renal, 36.4 µM; in the experiment on HCC-2998 colon, 17.3 µM; in the experiment on SK-MEL-28 melanoma, 35.9 µM. For the same compound, the TGI in the experiment on NCI-H522 lung was 37.3 µM; in the experiment with HCT-116 colon, 35.7 µM; in the experiment with A549 NSCLC, 35.7 µM; in the experiment on SNB-75 CNS it was 29.9 µM; with SR leukemia, > 100 µM.

For `C1CSCCSCSCCS1`, the TGI in the experiment with OVCAR-4 ovarian, in the experiment with MCF7 breast, with HCT-15 colon, with CAKI-1 renal, in the experiment on HCC-2998 colon and with SK-MEL-28 melanoma was > 100 µM each time. In addition, the TGI in the experiment on NCI-H522 lung, with HCT-116 colon, with A549 NSCLC and in the experiment on SNB-75 CNS was > 100 µM each time.

Take `CC1C[C@]2(C[C@@H](C)C(=O)O2)OC2CC3(C)C4CCC5C(C)(C)OC(=O)CC[C@@]56C[C@@]46CC[C@]3(C)C12` (stereo partly drawn): the TGI in the experiment on OVCAR-4 ovarian, in the experiment on HCT-15 colon, in the experiment with CAKI-1 renal, in the experiment with HCC-2998 colon, in the experiment on SK-MEL-28 melanoma and in the experiment with HCT-116 colon was > 100 µM in each case. The TGI in the experiment on A549 NSCLC, with SNB-75 CNS and with SR leukemia was > 100 µM throughout.

As to `NC(CCP(=O)(O)O)C(=O)O` (stereo not drawn), the TGI with OVCAR-4 ovarian, with HCT-15 colon, in the experiment on CAKI-1 renal, in the experiment with SK-MEL-28 melanoma, with NCI-H522 lung and with HCT-116 colon was > 100 µM in each case. The TGI with A549 NSCLC and with SR leukemia was > 100 µM in each case.

Regarding `CS(=O)(=O)c1ccc2nc(-c3ccc(O)cc3)sc2c1`, the TGI in the experiment with MCF7 breast was found to be 35.5 µM; in the experiment on HCT-15 colon it was 31.7 µM; with CAKI-1 renal it was 31.4 µM; in the experiment on NCI-H522 lung, 29.6 µM; in the experiment on HCT-116 colon, 30.5 µM; in the experiment on A549 NSCLC, 34.3 µM. The TGI in the experiment on SR leukemia came out at 39.8 µM.

Turning to `O=S(=O)(O)c1ccc2c(N=Nc3ccc(S(=O)(=O)O)c4ccccc34)c(O)c(S(=O)(=O)O)cc2c1`, the TGI with OVCAR-4 ovarian, in the experiment on MCF7 breast, in the experiment on HCT-15 colon, with CAKI-1 renal, in the experiment on HCC-2998 colon and in the experiment on SK-MEL-28 melanoma was > 100 µM each time. The TGI in the experiment on NCI-H522 lung, with HCT-116 colon, with A549 NSCLC, with SNB-75 CNS and in the experiment on SR leukemia was > 100 µM throughout. The GI50 in the experiment on A549 NSCLC was 28.7 µM and > 100 µM.

With `O=C(Nc1ccc(Cl)cc1)c1cc([N+](=O)[O-])ccc1O`, the TGI is > 100 µM in the experiment with OVCAR-4 ovarian; 28.6 µM with HCT-15 colon; 24.4 µM in the experiment on CAKI-1 renal; 8.98 µM in the experiment on HCC-2998 colon; 15.6 µM in the experiment on SK-MEL-28 melanoma; 5.85 µM in the experiment with NCI-H522 lung. Further, the TGI in the experiment with HCT-116 colon is 20.8 µM; in the experiment on A549 NSCLC, > 96.2 µM; in the experiment on SNB-75 CNS it was 20.2 µM; with SR leukemia it was 31.6 µM.

For the compound `O=[N+]([O-])c1cc(N=Nc2c(O)ccc3cc(S(=O)(=O)O)ccc23)c(O)c([N+](=O)[O-])c1`, the TGI in the experiment on OVCAR-4 ovarian, in the experiment with HCT-15 colon, in the experiment with CAKI-1 renal, in the experiment with SK-MEL-28 melanoma, in the experiment with NCI-H522 lung and in the experiment on HCT-116 colon was > 100 µM each time. Also, the TGI in the experiment with A549 NSCLC and with SNB-75 CNS was > 100 µM each time.

With `CCCCSCC(NC(=O)/C=C/c1c(C)[nH]c(=O)[nH]c1=O)C(=O)OC` (stereo not drawn), the TGI is > 89 µM in the experiment on OVCAR-4 ovarian; 114 µM in the experiment on MCF7 breast; > 450 µM with HCT-15 colon; 155 µM in the experiment on CAKI-1 renal; 132 µM with HCC-2998 colon; 317 µM in the experiment on SK-MEL-28 melanoma. Further, the TGI in the experiment with NCI-H522 lung came out at 132 µM; with HCT-116 colon, 246 µM; in the experiment on A549 NSCLC, 401 µM; in the experiment with SNB-75 CNS it was 241 µM.

In the case of `c1ccc(-c2n(Cc3ccc4ccccc4c3)c3ccccc3[n+]2Cc2ccc3ccccc3c2)cc1`, the GI50 is 0.245 µM with OVCAR-4 ovarian; 1.39 µM in the experiment with HCT-15 colon; 0.359 µM in the experiment on SK-MEL-28 melanoma; 0.184 µM with SNB-75 CNS; 0.343 µM with SR leukemia. Also, the TGI in the experiment with OVCAR-4 ovarian worked out at 0.818 µM; in the experiment on HCT-15 colon, 2.91 µM; with SK-MEL-28 melanoma it was 1.31 µM; in the experiment on SNB-75 CNS it was 0.913 µM; in the experiment on SR leukemia it was 1.64 µM.

As for `COc1ccc(-c2oc3cc(OC(C)=O)cc(OC(C)=O)c3c(=O)c2OC)cc1`, the TGI was 48.4 µM with MCF7 breast; > 100 µM in the experiment with HCT-15 colon; 34.9 µM in the experiment on CAKI-1 renal; 32.3 µM in the experiment on HCC-2998 colon; 35.5 µM with SK-MEL-28 melanoma; 5.28 µM in the experiment on NCI-H522 lung. The TGI in the experiment on HCT-116 colon was determined as 44.3 µM; in the experiment on A549 NSCLC, 74.1 µM; with SR leukemia it was 51.5 µM.

For the compound `O=C1c2cccc(O)c2C(=O)c2c(O)cccc21`, the TGI in the experiment with OVCAR-4 ovarian, with HCT-15 colon, with CAKI-1 renal, in the experiment with HCC-2998 colon, with SK-MEL-28 melanoma and in the experiment on NCI-H522 lung was > 100 µM in each case. Besides, the TGI in the experiment on HCT-116 colon, in the experiment with A549 NSCLC, in the experiment on SNB-75 CNS and in the experiment with SR leukemia was > 100 µM throughout.

With `C[n+]1c2ccccc2c(CNCC(=O)O)c2ccccc21`, the TGI in the experiment on OVCAR-4 ovarian came out at 25.2 µM; in the experiment on HCT-15 colon, 4.94 µM; with CAKI-1 renal, 1.84 µM; with HCC-2998 colon, 18.1 µM; in the experiment with NCI-H522 lung, 0.307 µM; in the experiment with HCT-116 colon it was 1.3 µM. Also, the TGI came out at 13.1 µM with A549 NSCLC and 20.9 µM in the experiment on SNB-75 CNS.

As to `CC(=O)OCC1OC(NC(=O)N(CCCl)N=O)C(OC(C)=O)C(OC(C)=O)C1OC(C)=O` (stereo not drawn), the TGI with OVCAR-4 ovarian, in the experiment with MCF7 breast, in the experiment with HCT-15 colon, with CAKI-1 renal, with HCC-2998 colon and in the experiment on SK-MEL-28 melanoma was > 100 µM throughout. For the same compound, the TGI in the experiment with NCI-H522 lung, in the experiment on HCT-116 colon, with A549 NSCLC and with SNB-75 CNS was > 100 µM throughout.

With `NC(=O)c1ccc([N+](=O)[O-])cc1`, the TGI with HCT-15 colon, in the experiment on CAKI-1 renal, in the experiment on HCC-2998 colon, in the experiment with SK-MEL-28 melanoma, in the experiment on NCI-H522 lung and in the experiment with A549 NSCLC was > 100 µM in each case. For the same compound, in the experiment on SNB-75 CNS, the TGI is > 100 µM.

Turning to `C=CCNC1=C2C[C@@H](C)C[C@H](OC)[C@H](O)[C@@H](C)/C=C(\C)[C@H](OC(N)=O)[C@@H](OC)/C=C\C=C(/C)C(=O)NC(=CC1=O)C2=O`, the TGI was determined as 26.4 µM in the experiment with OVCAR-4 ovarian; 16 µM with MCF7 breast; 24.5 µM with HCT-15 colon; 38 µM with CAKI-1 renal; 2.82 µM in the experiment on HCC-2998 colon; 32.5 µM with SK-MEL-28 melanoma. Also, the TGI with NCI-H522 lung stood at 22.3 µM; in the experiment on HCT-116 colon, 26.1 µM; in the experiment with A549 NSCLC it was 17.8 µM; in the experiment on SNB-75 CNS it was 2.72 µM; with SR leukemia it was 10.3 µM.

As for `COc1ccc2c(c1)C(OC)C1c3c(cc4c(c3-2)OCO4)CCN1C` (stereo not drawn), the TGI is 10.3 µM with OVCAR-4 ovarian; 8.13 µM with MCF7 breast; 10.2 µM in the experiment on HCT-15 colon; 7.32 µM in the experiment with CAKI-1 renal; 14.3 µM in the experiment on HCC-2998 colon; 19.8 µM with SK-MEL-28 melanoma. Besides, the TGI in the experiment on NCI-H522 lung was 6.23 µM; in the experiment on HCT-116 colon it was > 71.7 µM; with A549 NSCLC it was 9.87 µM; in the experiment with SNB-75 CNS it was 15.6 µM; in the experiment on SR leukemia, > 42.3 µM.

For `N=C(N)c1ccc(-c2ccc(-c3ccc4ccccc4c3)s2)s1`, the GI50 in the experiment on HCT-15 colon was 1.69 µM; in the experiment on CAKI-1 renal, 3.11 µM; in the experiment on HCC-2998 colon, 2.02 µM; in the experiment on SK-MEL-28 melanoma it was 2.25 µM; in the experiment on NCI-H522 lung, 1.96 µM; in the experiment on SNB-75 CNS it was 1.93 µM. Further, the TGI in the experiment with HCT-15 colon turned out to be 3.29 µM; in the experiment with CAKI-1 renal, 11.6 µM; with HCC-2998 colon, 4.48 µM; in the experiment on SK-MEL-28 melanoma, 6.02 µM; with NCI-H522 lung, 4.77 µM; in the experiment with SNB-75 CNS, 5.3 µM.

With `CCn1c(=O)c(C(=O)O)c(Cl)c2cc3c(cc21)OCO3`, the TGI in the experiment with OVCAR-4 ovarian, in the experiment on MCF7 breast, in the experiment with HCT-15 colon, in the experiment on CAKI-1 renal, in the experiment on HCC-2998 colon and in the experiment on SK-MEL-28 melanoma was > 100 µM each time. Moreover, the TGI in the experiment on NCI-H522 lung, in the experiment on HCT-116 colon, with A549 NSCLC and in the experiment with SNB-75 CNS was > 100 µM in each case.

Turning to `C[P+](c1ccccc1)(c1ccc(Cl)cc1)c1ccc(Cl)cc1`, the TGI was 45.2 µM in the experiment on OVCAR-4 ovarian; > 100 µM with MCF7 breast; > 100 µM in the experiment with HCT-15 colon; 24 µM in the experiment with HCC-2998 colon; 29 µM in the experiment with SK-MEL-28 melanoma; 33.1 µM in the experiment on NCI-H522 lung. Also, the TGI is 44.9 µM in the experiment with HCT-116 colon, > 100 µM with A549 NSCLC and 46 µM with SNB-75 CNS.

Take `COc1ccc(N2C(=O)/C(=C\c3ccccc3)SC2c2cc(OC)c(OC)c(OC)c2)cc1` (stereo not drawn): the TGI in the experiment on OVCAR-4 ovarian, in the experiment on MCF7 breast, in the experiment with HCT-15 colon, with CAKI-1 renal, in the experiment with HCC-2998 colon and in the experiment on SK-MEL-28 melanoma was > 100 µM each time. The TGI in the experiment with NCI-H522 lung was > 100 µM; in the experiment with HCT-116 colon, > 100 µM; with A549 NSCLC it was > 100 µM; in the experiment on SNB-75 CNS, 75.7 µM; in the experiment with SR leukemia, > 100 µM.
